The text below walks through data of patent US20240050396A1, “COMPOSITIONS AND METHODS FOR THE TREATMENT OF SOLID TUMORS” (POLYPID LTD., priority 2020, published 2024).

The conditions of data set [1]: iv; NDA 020449; cited from earlier work.
Data set [2] has as its system CT-26 subcutaneous colon carcinoma tumors. The following applies: for survival rate / tumor free animals: Day 39; for average tumor volume: after 39 days; for day animals started to gain weight: mouse, in vivo. The text has this:
In the current experiment, the efficacy of local treatment with extended-release formulations according to some embodiments of the invention was compared to systemic treatment with Docetaxel. For that, subcutaneous colon carcinoma tumors were established in female BALB/c mice (7-8 weeks old, weighing ±16-20 gram at study initiation) and after reaching a desired volume (400-600 mm^3), they were resected and ˜90% of their volume was removed followed by administration of the test items. The recurrence rate of the tumors was followed and compared to an untreated control group.
Animals were injected SC with 0.5 million CT-26 cells above the right hip. When the tumor reached the desired volume (400 mm^3) after ˜7 days, animals were divided to five groups, mice were anesthetized, and the tumors were resected. Group 1 was administered with 200 mg of formulation VI containing 1.3% docetaxel (2.6 mg/mouse) to the tumor bed and Group 2 was administered with 200 mg of formulation I containing 0.88% docetaxel ([…]) to the tumor bed. Groups 3 and 4 were treated by repeated i.v injections of docetaxel solution. Group 3 was administered with 20 mg/kg i.v followed by five i.v injections of 10 mg/kg, once every 4 days. Group 4 was administered with 30 mg/kg i.v followed by five IV injections of 15 mg/kg, once every 4 days. Group 5 served as a saline-treated control with ˜100 μL saline administered locally into the tumor bed. The skin incision was then closed using a sterile suture. Post-surgery, the animals were returned to their cages for recovery and observation. Tumor size, clinical signs, and body weights were followed for 39 days.

Data set [3] can be described thus: Pharmacokinetic profile of locally administered formulations vs i.v docetaxel (Example 11). Format: in vivo, Sprague-Dawley female Rats. The text has this:
This study compared the pharmacokinetics profile of docetaxel sustained release composition according to several embodiments of the invention administered to rats. The systemic PK profile of docetaxel released from the local administered formulations was compared to the PK profile of docetaxel administered i.v.
Animals: 30 Sprague-Dawley female Rats weighing+/−200 gram
Experimental Design—three study groups (n=10) were included in this study. Animals were anesthetized and skin above the right hip was cut (1 cm long) and lifted, creating a SC pocket. By making this pocket, the underlying muscle was slightly injured, mimicking the situation of the resection of SC tumor graft in the rat model. Each animal received the treatment as detailed in Table 7. In Groups 1 and 2, Formulations VI and I respectively were administered in the SC pocket on top of the injured muscle. The skin was then sutured. In the i.v. treated group (Group 3), the administration of treatment was given once, immediately after wound closure. After administration, blood samples were collected in the designated time points. Each treatment group was divided to two subgroups (n=5/subgroup) and each subgroup was sampled at the different time points. Blood was collected at 0.5, 1, 2, 4, 8, 12, and 24 hours and at 2, 3, 4, 5, 6, 7, 14, 21, and 30 days post-administration. Clinical signs and animal weights were followed during the study. The concentration of the released docetaxel in the plasma samples was evaluated by a liquid chromatography tandem mass spectrometry (LC-MS/MS) method (lower limit of quantitation [LLOQ]=3 ng/mL). The results were used to determine the PK profile of docetaxel.

Data set [4] deals with HCT-8 colorectal carcinoma cells. The following applies: cited from earlier work.
For data set [5], the system named is KB-8-5 Epidermoid cells. The settings on record: cited from earlier work.
For data set [6], the system named is KB-P-15 Epidermoid cells. The settings on record: cited from earlier work.
Data set [7] concerns KB-D-15 Epidermoid cells. The following applies: cited from earlier work.
Data set [8] has as its system KB-V-1 Epidermoid cells. The following applies: cited from earlier work.
Data set [9] relates to KB-PTX/099 Epidermoid cells. The settings on record: cited from earlier work.
Data set [10] deals with DLD-1 colorectal carcinoma cells. The following applies: cited from earlier work.
Data set [11] concerns HCT-15 colorectal carcinoma cells. The following applies: cited from earlier work.
Data set [12] has as its system A549.EpoB40 non squamous cell lung carcinoma. The following applies: cited from earlier work.
The test system of data set [13] is CT-26 cell line. The following applies: CT-26, resistant cell line; cited from earlier work.
The subject of data set [14] is NSCLC: A549 cells. The following applies: A549, non-resistant; cited from earlier work.
Data set [15] concerns CRC: HCT-116 cells. The settings on record: HCT-116, non-resistant; cited from earlier work.
Data set [16] relates to epidermoid KB-3-1 cells. The following applies: KB-3-1, non-resistant; cited from earlier work.
Setting [17] is: female, Sprague-Dawley, rat, intravenous, plasma docetaxel, single i.v 10 mg/kg.
[18] abbreviates: female, Sprague-Dawley, rat, iv, plasma docetaxel, single i.v 10 mg/kg.

Like-named read-outs stand apart in the source and are kept apart here.

As to `CC(=O)O[C@@]12CO[C@@H]1C[C@H](O)[C@@]1(C)C(=O)[C@H](O)C3=C(C)[C@@H](OC(=O)[C@H](O)[C@@H](NC(=O)OC(C)(C)C)c4ccccc4)C[C@@](O)([C@@H](OC(=O)c4ccccc4)[C@H]21)C3(C)C` [Taxotere], in data set [1], the “maximal tolerated dose (MTD) and non-lethal dose (NLD) reported” value is listed as 10 mg/kg.
Turning to `CC(=O)O[C@@]12CO[C@@H]1C[C@H](O)[C@@]1(C)C(=O)[C@H](O)C3=C(C)[C@@H](OC(=O)[C@H](O)[C@@H](NC(=O)OC(C)(C)C)c4ccccc4)C[C@@](O)([C@@H](OC(=O)c4ccccc4)[C@H]21)C3(C)C` [docetaxel], the values for the survival rate in data set [2] (i.v 10 mg/kg every 4 days) and in data set [2] (i.v 15 mg/kg every 4 days) were 50% and 63%, respectively. Further, the results for the tumor free animals in [2] (i.v 20 mg/kg then five injections of 10 mg/kg every 4 days) and in data set [2] (i.v 30 mg/kg then five injections of 15 mg/kg every 4 days) were 2/8 and 3/8, respectively. In addition, the average tumor volume turned out to be 955 mm^3 in data set [2] (i.v 10 mg/kg every 4 days) and 485 mm^3 in [2] (i.v 15 mg/kg every 4 days). The “overall tumor free survival” value in [2] (day 39 post surgery, five cycles of systemic treatment) is listed as 25%. In [2] (end of study, extensive systemic treatment), the overall tumor recurrence amounted to 75%. The entries for the “animals terminated early due to tumor volume that exceeded 1500 mm^3” value in data set [2] (i.v 10 mg/kg every 4 days) and in data set [2] (i.v 15 mg/kg every 4 days) were 4 and 2, respectively. In addition, the “day animals started to gain weight” value was 20 days in [2] (10 mg/kg) and 23 days in data set [2] (15 mg/kg). Also, the “delayed tumor recurrence after tumor resection (first tumor related mortality)” value in [2] (systemic treatment arm) is listed as 9 days. The “Cmax of i.v relative to max exposure of Formulation VI” value in data set [3] (881 vs. 80.4 ng/ml) is “more than 10 fold”. The exposure AUC(0-t) (commonly exposure summed from dosing to a finite time, without extrapolation to infinity) in data set [3] (setting [17]) was determined as 2280 ng·h/mL. Moreover, the maximum concentration (Cmax) – broadly, the peak of the concentration-time curve – in data set [3] (setting [17]) was determined as 881 ng/mL. This molecule also had a C0 in data set [3] (setting [18]) of 881 ng/mL. The Tmax (as a rule, the time at which the peak concentration occurs) in data set [3] (setting [18]) was determined as 0 h. Moreover, the half-life – broadly, the time needed for the level to fall by half in the phase considered – in data set [3] (setting [18]) is 23.1 h. The molecule further displayed a Tlast in data set [3] (plasma docetaxel, single i.v 10 mg/kg) of 72 h. The half-maximal inhibitory concentration (IC50) (commonly the concentration that inhibits the measured activity by half) in data set [4] is 3070 nM; in data set [5], 8.8 nM; in [6] it was 17.6 nM; in [7], 68.2 nM; in data set [8], 468 nM; in data set [9] it was 8.8 nM. Moreover, the half-inhibitory concentration (IC50) was 16.2 nM in [10]; 54.1 nM in data set [11]; 28.5 nM in data set [12]; 260 nM in data set [13]; 1.9 nM in [14]; 5.4 nM in [15]. For the same molecule, in data set [16], the IC50 is 1.1 nM.
